This is an account of results in patent US10080739B2, “Aryl imidazoles and their use as anti-cancer agents” (Aptose Biosciences Inc., priority 2003, dated 2018).

As a reminder, the GI50 is the concentration at which growth is held to half of that of the control. Read a high GI50 as lower sensitivity of the cells.

Molecules are shown by their SMILES.

One assay concerns the target T1, PI3K-α (Homo sapiens, UniProt P42336).
T1 construct: purchased Upstate Biotechnologies (kinase profiler service)
Put plainly: kinase profiler, PI3K-α. The format is biochemical. As to conditions: 10 μM compound, mean of % control.

Another assay deals with T2, PKCδ (Homo sapiens, UniProt Q05655).
T2 construct: purchased Upstate Biotechnologies (kinase profiler service)
T2 sequence (Q05655 whole entry): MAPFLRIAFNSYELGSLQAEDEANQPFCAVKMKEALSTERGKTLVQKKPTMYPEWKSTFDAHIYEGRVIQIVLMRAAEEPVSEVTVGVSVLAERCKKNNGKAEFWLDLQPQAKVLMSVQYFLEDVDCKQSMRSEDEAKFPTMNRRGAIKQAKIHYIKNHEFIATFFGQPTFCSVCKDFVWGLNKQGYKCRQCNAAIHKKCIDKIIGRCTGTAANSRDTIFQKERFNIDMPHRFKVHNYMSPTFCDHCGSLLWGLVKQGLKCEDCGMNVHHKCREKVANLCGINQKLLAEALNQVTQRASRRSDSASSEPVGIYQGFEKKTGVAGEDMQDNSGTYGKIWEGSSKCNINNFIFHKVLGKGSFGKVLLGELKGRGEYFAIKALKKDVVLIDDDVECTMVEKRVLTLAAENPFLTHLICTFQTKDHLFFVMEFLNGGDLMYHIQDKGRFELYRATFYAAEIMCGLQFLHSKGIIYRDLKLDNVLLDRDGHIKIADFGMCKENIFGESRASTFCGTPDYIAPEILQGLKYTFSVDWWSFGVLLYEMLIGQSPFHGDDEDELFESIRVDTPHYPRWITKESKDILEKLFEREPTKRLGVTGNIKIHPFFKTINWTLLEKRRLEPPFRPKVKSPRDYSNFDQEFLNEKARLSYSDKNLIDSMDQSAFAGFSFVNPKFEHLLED
Nature of the assay: kinase profiler, PKCδ. The note with it: 10 μM compound, 100 μM ATP, mean of % control. The format is biochemical. The protocol:
(§1) Compound 45 was tested for its ability to function as a kinase inhibitor using the kinase profiler service from Upstate Biotechnologies. The general protocol employed is as follows: recombinant kinases were incubated with specific substrates, 10 mM MgAcetate, and [γ-^33P-ATP]. The reaction was initiated by the addition of MgATP mix. After incubation at room temperature for 40 minutes, the reaction was stopped by the addition of 5 μl of a 3% phosphoric acid solution. 10 μl of the reaction was then spotted on to a P30 filtermat and washed 3 times for 5 min. in 75 mM phosphoric acid and once in methanol prior to drying and scintillation counting. Each reaction was performed in duplicate with 100 μM ATP −/+10 μM compound 45. Results are presented in Table IV and are expressed as the mean of % control (no compound). PI 3-kinase-γ (PI3K-γ) activity was determined with the PIProfiler™ assay, which measures the binding of the GRP1 pleckstrin homology (PH) domain to PIP3, the product of PI3K acting on its physiological substrate PIP2.

The subject of assay [1] is human colon carcinoma cells (HT-29). Put plainly: XTT cell proliferation assay, HT-29 cells, 48 h. Format: cell-based. As to conditions: read-out: % Survival. As for the experimental part:
Selected compounds of Formula I were tested for anti-cancer activity in vitro using a human colon carcinoma cells (HT-29) and human non-small cell lung cancer cells (H460). The cells were maintained in α-MEM medium (Wisent, St-Bruno, Qc) supplemented with 10% FBS, and grown at 37° C. in an atmosphere of 5% CO2. Cells were transferred onto 150 mm tissue culture plates and grown until sub-confluency (70-80%) prior to their use.
The anti-cancer activity in vitro was evaluated by a cell proliferation assay based on the ability of live cells to reduce the tetrazolium salt XTT to orange coloured compounds of formazan (XTT cell proliferation kit II, Roche Applied Science, Montreal, QC).
Approximately 4×10^3 colon cancer cells (HT-29) or 2×10^3 non-small cell lung cancer cells (NCI-H460) in 100 μl of complete culture medium were plated onto 96-well microtiter plates and incubated overnight at 37° C. The medium was then removed by inverting the plate and patting on a sterile absorbent cloth. Fifty μl of medium containing the test compound at either 25 or 100 μM, were added to the wells containing cells and incubated at 37° C. in an atmosphere of 5% CO2 for 48 h. Following incubation, 25 μl of an XTT reaction mixture (XTT at a final concentration of 0.3 mg/ml) were added to each well and the plates were incubated for a further 4 h. The absorbance of each sample was then determined at a wavelength of 490 nm/650 nm as reference. Each compound was tested in duplicate and the results are reported as averages.

For a further assay, the target named is T3, SAPK4 (Homo sapiens, UniProt O15264).
T3 construct: purchased Upstate Biotechnologies (kinase profiler service)
T3 sequence (O15264 whole entry): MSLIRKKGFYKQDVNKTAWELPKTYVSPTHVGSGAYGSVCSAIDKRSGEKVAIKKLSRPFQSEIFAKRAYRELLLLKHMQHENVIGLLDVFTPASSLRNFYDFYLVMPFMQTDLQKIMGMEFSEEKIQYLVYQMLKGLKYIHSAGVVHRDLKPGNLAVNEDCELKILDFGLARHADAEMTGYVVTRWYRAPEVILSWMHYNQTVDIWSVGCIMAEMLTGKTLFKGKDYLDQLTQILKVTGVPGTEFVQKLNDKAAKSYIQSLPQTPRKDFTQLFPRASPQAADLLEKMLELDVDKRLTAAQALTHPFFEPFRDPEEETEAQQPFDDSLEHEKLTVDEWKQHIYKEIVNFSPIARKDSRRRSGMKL
Put plainly: kinase profiler, SAPK4. Format: biochemical. The note with it: 10 μM compound, 100 μM ATP, mean of % control. The protocol:
as §1

A further assay has as its target T4, CDK3/cyclinE (Homo sapiens, UniProt Q00526).
T4 construct: purchased Upstate Biotechnologies (kinase profiler service)
Nature of the assay: kinase profiler, CDK3/cyclinE. Format: biochemical. As to conditions: 10 μM compound, 100 μM ATP, mean of % control. The protocol: as §1

The target in another assay is T5, CDK1/cyclinB (Homo sapiens, UniProt P06493).
T5 construct: purchased Upstate Biotechnologies (kinase profiler service)
Put plainly: kinase profiler, CDK1/cyclinB. Format: biochemical. The note with it: 10 μM compound, 100 μM ATP, mean of % control. The protocol:
as §1

For a further assay, the system named is HT-29 colon cancer cells. Nature of the assay: growth suppression of HT-29 colon cancer cells. Format: cell-based. The note with it: Homo sapiens.
A further assay deals with T6, Rsk1 (Homo sapiens, UniProt Q15418).
T6 construct: purchased Upstate Biotechnologies (kinase profiler service)
Put plainly: kinase profiler, Rsk1. The format is biochemical. As to conditions: 10 μM compound, 100 μM ATP, mean of % control. The protocol:
as §1

Another assay has as its target T7, ALK (Homo sapiens, UniProt Q9UM73).
T7 construct: purchased Upstate Biotechnologies (kinase profiler service)
Nature of the assay: kinase profiler, ALK. Format: biochemical. The note with it: 10 μM compound, 100 μM ATP, mean of % control. As for the experimental part:
as §1

The target in another assay is T8, TAK1 (Homo sapiens, UniProt O43318).
T8 construct: purchased Upstate Biotechnologies (kinase profiler service)
Put plainly: kinase profiler, TAK1. The format is biochemical. As to conditions: 10 μM compound, 100 μM ATP, mean of % control. The protocol: as §1

The target in another assay is T9, CDK6/cyclinD3 (Homo sapiens, UniProt Q00534).
T9 construct: purchased Upstate Biotechnologies (kinase profiler service)
Nature of the assay: kinase profiler, CDK6/cyclinD3. The format is biochemical. As to conditions: 10 μM compound, 100 μM ATP, mean of % control. As for the experimental part: as §1

Another assay addresses T10, MEK1 (Homo sapiens, UniProt Q02750).
T10 construct: purchased Upstate Biotechnologies (kinase profiler service)
Nature of the assay: kinase profiler, MEK1. As to conditions: 10 μM compound, 100 μM ATP, mean of % control. Format: biochemical. The protocol:
as §1

A further assay concerns renal cancer cell lines. Put plainly: NCI/DTP screen, renal cancer cell lines. As to conditions: Homo sapiens; renal cancer cell lines (FIG. 10B). Format: cell-based. As for the experimental part:
The twenty-three compounds of Formula I shown below were evaluated for their antiproliferative effects in a panel of 60 human cancer cell lines as part of the in vitro anticancer screening services provided by the DTP (Developmental Therapeutics Program) of the US National Cancer Institute (NCI) U.S. National Cancer Institute (NCI) of the National Institutes of Health (NIH) in […], Md.
The NCI conducts a standard 48/72 hour 60 cell line assay and an in vitro time course assay as described in Alley et al. (Cancer Res (1988) 48:589). In the standard 60 cell line assay, a minimum of 5 concentrations of the test compound are tested at 10-fold dilutions against 60 cell lines and cell growth is assayed at 48 and 72 hours using a sulphorhodamine B assay. For the time course analysis, tumour cells are treated with the test compound at various time points, then washed and grown in medium free of the test compound until the end of the experiment at 144 hrs. This assay employs 20% FBS to better approximate the minimum c×t (concentrations and times) test compound exposure conditions that are required to achieve activity in vivo. Cell growth is quantified by an MTT assay (similar to the XTT assay described above) and the concentration of the test compound required for growth inhibition is determined. […]

The target of the next assay is T11, MAPK1 (Homo sapiens, UniProt P27361).
T11 construct: purchased Upstate Biotechnologies (kinase profiler service)
Put plainly: kinase profiler, MAPK1. The format is biochemical. The note with it: 10 μM compound, 100 μM ATP, mean of % control. The protocol:
as §1

The next assay deals with AMPK. Put plainly: kinase profiler, AMPK. Format: biochemical, human. The note with it: 10 μM compound, 100 μM ATP, mean of % control. The protocol:
as §1

A further assay deals with T12, MST2 (Homo sapiens, UniProt Q13188).
T12 construct: purchased Upstate Biotechnologies (kinase profiler service)
Put plainly: kinase profiler, MST2. As to conditions: 10 μM compound, 100 μM ATP, mean of % control. Format: biochemical. As for the experimental part:
as §1

In a further assay the target is T13, PI3K-β (Homo sapiens, UniProt P42338).
T13 construct: purchased Upstate Biotechnologies (kinase profiler service)
Nature of the assay: kinase profiler, PI3K-β. The format is biochemical. The note with it: 10 μM compound, mean of % control.

The target of the next assay is T14, MSK1 (Homo sapiens, UniProt O75582).
T14 construct: purchased Upstate Biotechnologies (kinase profiler service)
Put plainly: kinase profiler, MSK1. The note with it: 10 μM compound, 100 μM ATP, mean of % control. Format: biochemical. The protocol: as §1

In a further assay the target is T15, RAF (Homo sapiens, UniProt P04049).
T15 construct: purchased Upstate Biotechnologies (kinase profiler service)
T15 sequence (P04049 whole entry): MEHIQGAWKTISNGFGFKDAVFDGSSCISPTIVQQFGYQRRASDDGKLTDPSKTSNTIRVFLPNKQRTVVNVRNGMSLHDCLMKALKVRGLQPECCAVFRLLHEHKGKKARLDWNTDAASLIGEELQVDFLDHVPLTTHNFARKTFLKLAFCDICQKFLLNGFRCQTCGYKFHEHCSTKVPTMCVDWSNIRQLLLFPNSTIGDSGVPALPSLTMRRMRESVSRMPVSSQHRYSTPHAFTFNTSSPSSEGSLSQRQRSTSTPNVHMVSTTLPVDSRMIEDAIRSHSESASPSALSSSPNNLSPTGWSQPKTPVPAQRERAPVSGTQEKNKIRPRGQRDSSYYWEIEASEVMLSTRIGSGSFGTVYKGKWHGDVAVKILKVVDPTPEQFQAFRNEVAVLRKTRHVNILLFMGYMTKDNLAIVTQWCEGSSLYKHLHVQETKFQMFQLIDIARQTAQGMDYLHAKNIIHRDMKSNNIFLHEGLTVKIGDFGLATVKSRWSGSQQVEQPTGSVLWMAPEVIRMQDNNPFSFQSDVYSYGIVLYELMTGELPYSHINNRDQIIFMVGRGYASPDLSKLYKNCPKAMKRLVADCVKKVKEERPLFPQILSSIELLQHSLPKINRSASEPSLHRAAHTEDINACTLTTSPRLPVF
Nature of the assay: kinase profiler, RAF. The format is biochemical. As to conditions: 10 μM compound, 100 μM ATP, mean of % control. As for the experimental part:
as §1

For another assay, the target named is T16, PKCζ (Homo sapiens, UniProt Q05513).
T16 construct: purchased Upstate Biotechnologies (kinase profiler service)
T16 sequence (Q05513 whole entry): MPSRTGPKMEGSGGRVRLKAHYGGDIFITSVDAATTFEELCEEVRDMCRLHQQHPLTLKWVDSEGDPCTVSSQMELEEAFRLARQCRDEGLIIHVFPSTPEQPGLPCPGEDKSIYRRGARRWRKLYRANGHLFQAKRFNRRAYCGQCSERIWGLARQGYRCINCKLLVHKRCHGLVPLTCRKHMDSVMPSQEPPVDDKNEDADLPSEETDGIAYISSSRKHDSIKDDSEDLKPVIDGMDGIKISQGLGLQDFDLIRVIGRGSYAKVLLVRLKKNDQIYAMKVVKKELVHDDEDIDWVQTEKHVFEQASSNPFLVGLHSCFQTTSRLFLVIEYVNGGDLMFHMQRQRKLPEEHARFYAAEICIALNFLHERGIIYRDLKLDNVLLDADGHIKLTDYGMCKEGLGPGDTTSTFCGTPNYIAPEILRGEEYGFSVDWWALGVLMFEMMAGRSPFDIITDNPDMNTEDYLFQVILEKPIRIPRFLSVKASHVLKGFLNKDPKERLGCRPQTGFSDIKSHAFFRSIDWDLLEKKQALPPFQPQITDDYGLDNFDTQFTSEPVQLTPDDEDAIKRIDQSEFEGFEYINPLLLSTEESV
Nature of the assay: kinase profiler, PKCζ. The format is biochemical. The note with it: 10 μM compound, 100 μM ATP, mean of % control. The protocol:
as §1

In another assay the target is T17, EGFR (Homo sapiens, UniProt P00533).
T17 construct: purchased Upstate Biotechnologies (kinase profiler service)
T17 sequence (P00533 25-1210): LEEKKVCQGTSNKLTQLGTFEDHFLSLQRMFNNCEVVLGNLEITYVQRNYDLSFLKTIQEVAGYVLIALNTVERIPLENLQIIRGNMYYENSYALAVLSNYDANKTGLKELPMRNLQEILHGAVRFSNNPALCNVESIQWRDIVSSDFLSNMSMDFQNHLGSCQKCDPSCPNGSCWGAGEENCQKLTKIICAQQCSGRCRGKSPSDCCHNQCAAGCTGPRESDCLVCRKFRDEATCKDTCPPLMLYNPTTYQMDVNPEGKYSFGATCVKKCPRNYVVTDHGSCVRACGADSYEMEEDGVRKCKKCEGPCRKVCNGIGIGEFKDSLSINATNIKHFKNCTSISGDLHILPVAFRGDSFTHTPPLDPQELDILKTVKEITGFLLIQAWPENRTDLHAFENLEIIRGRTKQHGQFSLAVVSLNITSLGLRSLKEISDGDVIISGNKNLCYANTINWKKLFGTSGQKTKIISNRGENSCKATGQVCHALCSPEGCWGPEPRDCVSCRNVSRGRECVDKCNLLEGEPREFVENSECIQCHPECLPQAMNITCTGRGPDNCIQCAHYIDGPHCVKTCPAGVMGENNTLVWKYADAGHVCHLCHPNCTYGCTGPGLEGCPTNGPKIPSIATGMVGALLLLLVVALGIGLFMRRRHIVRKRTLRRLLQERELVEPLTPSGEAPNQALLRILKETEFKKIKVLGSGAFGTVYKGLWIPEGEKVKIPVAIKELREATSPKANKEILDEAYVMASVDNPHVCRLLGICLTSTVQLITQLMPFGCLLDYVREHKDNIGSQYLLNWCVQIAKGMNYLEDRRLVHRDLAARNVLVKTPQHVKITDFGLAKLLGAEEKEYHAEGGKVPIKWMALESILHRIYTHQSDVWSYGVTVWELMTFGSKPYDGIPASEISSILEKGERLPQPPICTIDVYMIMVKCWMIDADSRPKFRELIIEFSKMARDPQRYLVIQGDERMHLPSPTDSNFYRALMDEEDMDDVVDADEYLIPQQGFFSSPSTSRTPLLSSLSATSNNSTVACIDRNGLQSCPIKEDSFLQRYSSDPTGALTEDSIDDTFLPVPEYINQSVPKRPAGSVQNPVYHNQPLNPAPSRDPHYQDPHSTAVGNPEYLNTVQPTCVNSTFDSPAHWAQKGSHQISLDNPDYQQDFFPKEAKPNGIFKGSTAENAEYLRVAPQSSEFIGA
Nature of the assay: kinase profiler, EGFR. The note with it: 10 μM compound, 100 μM ATP, mean of % control. Format: biochemical. As for the experimental part:
as §1

T7 sequence (Q9UM73 19-1620): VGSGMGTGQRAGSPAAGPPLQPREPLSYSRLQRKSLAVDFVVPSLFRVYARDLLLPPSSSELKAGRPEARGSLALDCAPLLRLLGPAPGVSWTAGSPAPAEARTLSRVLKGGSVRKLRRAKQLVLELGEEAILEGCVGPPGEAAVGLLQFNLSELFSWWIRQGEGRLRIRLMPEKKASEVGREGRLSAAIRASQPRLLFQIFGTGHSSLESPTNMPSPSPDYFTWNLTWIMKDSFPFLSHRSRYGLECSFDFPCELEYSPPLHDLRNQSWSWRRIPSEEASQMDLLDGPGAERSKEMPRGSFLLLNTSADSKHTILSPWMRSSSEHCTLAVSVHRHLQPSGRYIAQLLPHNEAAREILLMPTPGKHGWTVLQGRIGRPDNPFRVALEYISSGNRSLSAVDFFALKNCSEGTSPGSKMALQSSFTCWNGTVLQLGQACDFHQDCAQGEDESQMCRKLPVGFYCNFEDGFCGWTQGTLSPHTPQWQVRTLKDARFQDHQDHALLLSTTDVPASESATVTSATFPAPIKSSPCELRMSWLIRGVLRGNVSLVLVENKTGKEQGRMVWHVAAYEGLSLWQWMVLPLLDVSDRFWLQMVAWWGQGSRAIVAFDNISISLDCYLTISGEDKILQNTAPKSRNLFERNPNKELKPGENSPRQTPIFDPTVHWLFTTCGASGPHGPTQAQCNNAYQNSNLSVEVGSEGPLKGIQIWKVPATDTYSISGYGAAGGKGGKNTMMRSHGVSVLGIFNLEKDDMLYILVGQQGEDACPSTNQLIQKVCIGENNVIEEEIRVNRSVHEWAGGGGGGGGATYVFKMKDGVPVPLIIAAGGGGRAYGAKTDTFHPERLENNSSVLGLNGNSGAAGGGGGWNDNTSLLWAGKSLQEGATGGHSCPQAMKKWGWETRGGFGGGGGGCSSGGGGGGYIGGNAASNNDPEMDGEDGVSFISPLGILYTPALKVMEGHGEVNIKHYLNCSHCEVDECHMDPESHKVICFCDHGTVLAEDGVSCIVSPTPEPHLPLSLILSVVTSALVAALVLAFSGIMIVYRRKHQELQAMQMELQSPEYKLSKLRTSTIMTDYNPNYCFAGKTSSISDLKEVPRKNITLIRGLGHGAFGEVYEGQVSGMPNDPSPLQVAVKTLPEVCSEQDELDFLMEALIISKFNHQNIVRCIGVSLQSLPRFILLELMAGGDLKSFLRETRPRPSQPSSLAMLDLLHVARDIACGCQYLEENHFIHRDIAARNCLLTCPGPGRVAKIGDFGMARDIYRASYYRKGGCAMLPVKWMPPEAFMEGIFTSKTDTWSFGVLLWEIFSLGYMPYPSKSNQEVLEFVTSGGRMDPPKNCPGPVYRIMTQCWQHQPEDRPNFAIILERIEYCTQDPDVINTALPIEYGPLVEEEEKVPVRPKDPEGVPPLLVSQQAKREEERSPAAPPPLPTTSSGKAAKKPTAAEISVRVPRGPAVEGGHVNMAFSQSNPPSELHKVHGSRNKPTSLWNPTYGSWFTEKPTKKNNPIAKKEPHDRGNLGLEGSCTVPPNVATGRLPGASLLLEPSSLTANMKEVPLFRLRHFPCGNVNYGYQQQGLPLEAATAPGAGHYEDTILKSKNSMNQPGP

With `Brc1ccc2[nH]cc(-c3nc4c5ccccc5c5ccccc5c4[nH]3)c2c1` [Compound 45], the activity at 10 µM worked out at 30% on PI3K-α; 87% at PKCδ; 77% at SAPK4; 107% at CDK3/cyclinE; 156% on CDK1/cyclinB; 183% at Rsk1. Also, the activity at 10 µM at ALK amounted to 60%; on TAK1, 104%; on CDK6/cyclinD3, 87%; at MEK1, 88%; at MAPK1, 85%; on MST2 it was 77%. For the same molecule, the activity at 10 µM at PI3K-β came out at 11%; on MSK1 it was 76%; on RAF it was 100%; at PKCζ, 96%; on EGFR it was 105%. Besides, the viability at 25 µM in assay [1] (25 μM compound) worked out at 88.9%. For the same molecule, in assay [1] (100 μM compound), the viability at 100 µM stood at 35%. The GI50 came to 2600 nM in the assay with HT-29 colon cancer cells and 1300 nM in the assay with renal cancer cell lines. Further, in the assay on AMPK, the “% activity” value came to 100%.
